Assays:
Rattus norvegicus [1] = species on record: Rattus norvegicus; test: DrugMatrix - Regimen: Daily Repeat; format: toxicity, organism-based, Sprague-Dawley; parameters: regimen Daily Repeat, gender Male, age 6-8 weeks; settings: in vivo, po, 75 mg/kg, route oral GAVAGE, dose level High, vehicle .5 % CMC; for ABSOLUTE BASOPHIL / ABSOLUTE EOSINOPHIL / ABSOLUTE LYMPHOCYTE / ABSOLUTE MONOCYTE / ABSOLUTE SEGMENTED NEUTROPHIL / BASOPHIL / EOSINOPHIL / ERYTHROCYTE COUNT / HEMATOCRIT / HEMOGLOBIN / LEUKOCYTE COUNT / LYMPHOCYTE / MEAN CORPUSCULAR HEMOGLOBIN / MEAN CORPUSCULAR HEMOGLOBIN CONCENTRATION / MEAN CORPUSCULAR VOLUME / MONOCYTE / NEUTROPHIL / NUCLEATED RED BLOOD CELLS / PLATELET COUNT: tissue Blood; for ALANINE AMINOTRANSFERASE / ALBUMIN / ALKALINE PHOSPHATASE / ASPARTATE AMINOTRANSFERASE / BLOOD UREA NITROGEN / CARBON DIOXIDE / CHLORIDE / CHOLESTEROL / CREATININE / GLUCOSE / LACTATE DEHYDROGENASE / LIPASE / PHOSPHORUS / POTASSIUM / SODIUM / TOTAL BILIRUBIN / TOTAL PROTEIN / URIC ACID: tissue Plasma
Rattus norvegicus [2] = species on record: Rattus norvegicus; format: toxicity, organism-based, Sprague-Dawley; settings: in vivo, po, 75 mg/kg, 24 h, route oral GAVAGE, dose level High, time 1 day, vehicle .5 % CMC
Description: DrugMatrix - Regimen: Single

## COc1ccc(C2CNC(=O)C2)cc1OC1CCCC1 (configuration not stated) [ROLIPRAM]
Rattus norvegicus [1]; 72 h, time 3 day
  ABSOLUTE BASOPHIL: 0 CELLS/uL
  ABSOLUTE EOSINOPHIL: 174 CELLS/uL
  ABSOLUTE LYMPHOCYTE: 10500 CELLS/uL
  ABSOLUTE MONOCYTE: 432 CELLS/uL
  ABSOLUTE SEGMENTED NEUTROPHIL: 3427.33 CELLS/uL
  BASOPHIL: 0%
  EOSINOPHIL: 1%
  ERYTHROCYTE COUNT: 6.02 x10E6/uL
  HEMATOCRIT: 37.7%
  HEMOGLOBIN: 13.93 G/DL
  LEUKOCYTE COUNT: 14.53 x10E3/uL
  LYMPHOCYTE: 73.33%
  MEAN CORPUSCULAR HEMOGLOBIN: 23.2 pg
  MEAN CORPUSCULAR HEMOGLOBIN CONCENTRATION: 36.97 G/DL
  MEAN CORPUSCULAR VOLUME: 62.73 fL
  MONOCYTE: 2.67%
  NEUTROPHIL: 23%
  NUCLEATED RED BLOOD CELLS: 0 /100WBC
  PLATELET COUNT: 1088.33 x10E3/uL
  ALANINE AMINOTRANSFERASE: 60.33 u/L
  ALBUMIN: 4.3 G/DL
  ALKALINE PHOSPHATASE: 331.67 u/L
  ASPARTATE AMINOTRANSFERASE: 73.33 u/L
  BLOOD UREA NITROGEN: 14.67 mg/dL
  CARBON DIOXIDE: 28 mmol/L
  CHLORIDE: 104 MEQ/L
  CHOLESTEROL: 63.33 mg/dL
  CREATININE: 0.17 mg/dL
  GLUCOSE: 170.67 mg/dL
  LACTATE DEHYDROGENASE: 116 u/L
  LIPASE: 10 u/L
  PHOSPHORUS: 11 mg/dL
  POTASSIUM: 6.1 MEQ/L
  SODIUM: 147.83 MEQ/L
  TOTAL BILIRUBIN: 0.1 mg/dL
  TOTAL PROTEIN: 6.23 G/DL
  URIC ACID: 1.73 mg/dL
Rattus norvegicus [1]; 120 h, time 5 day
  ABSOLUTE BASOPHIL: 0 CELLS/uL
  ABSOLUTE EOSINOPHIL: 142.67 CELLS/uL
  ABSOLUTE LYMPHOCYTE: 8076.67 CELLS/uL
  ABSOLUTE MONOCYTE: 387 CELLS/uL
  ABSOLUTE SEGMENTED NEUTROPHIL: 1493.67 CELLS/uL
  BASOPHIL: 0%
  EOSINOPHIL: 1.33%
  ERYTHROCYTE COUNT: 6.66 x10E6/uL
  HEMATOCRIT: 40%
  HEMOGLOBIN: 14.37 G/DL
  LEUKOCYTE COUNT: 10.1 x10E3/uL
  LYMPHOCYTE: 81.33%
  MEAN CORPUSCULAR HEMOGLOBIN: 21.6 pg
  MEAN CORPUSCULAR HEMOGLOBIN CONCENTRATION: 35.93 G/DL
  MEAN CORPUSCULAR VOLUME: 60.07 fL
  MONOCYTE: 3.67%
  NEUTROPHIL: 13.67%
  NUCLEATED RED BLOOD CELLS: 0 /100WBC
  PLATELET COUNT: 1039 x10E3/uL
  ALANINE AMINOTRANSFERASE: 69.67 u/L
  ALBUMIN: 4.5 G/DL
  ALKALINE PHOSPHATASE: 284.67 u/L
  ASPARTATE AMINOTRANSFERASE: 99.67 u/L
  BLOOD UREA NITROGEN: 15.33 mg/dL
  CARBON DIOXIDE: 34.33 mmol/L
  CHLORIDE: 101.67 MEQ/L
  CHOLESTEROL: 82.67 mg/dL
  CREATININE: 0.18 mg/dL
  GLUCOSE: 127 mg/dL
  LACTATE DEHYDROGENASE: 138.67 u/L
  LIPASE: 8.67 u/L
  PHOSPHORUS: 9.93 mg/dL
  POTASSIUM: 6.21 MEQ/L
  SODIUM: 149.7 MEQ/L
  TOTAL BILIRUBIN: 0.13 mg/dL
  TOTAL PROTEIN: 6.8 G/DL
  URIC ACID: 1.3 mg/dL
Rattus norvegicus [1]; […], time 14 day
  ABSOLUTE BASOPHIL: 0 CELLS/uL
  ABSOLUTE EOSINOPHIL: 252.2 CELLS/uL
  ABSOLUTE LYMPHOCYTE: 9667.6 CELLS/uL
  ABSOLUTE MONOCYTE: 605.6 CELLS/uL
  ABSOLUTE SEGMENTED NEUTROPHIL: 4994.6 CELLS/uL
  BASOPHIL: 0%
  EOSINOPHIL: 1.6%
  ERYTHROCYTE COUNT: 6.09 x10E6/uL
  HEMATOCRIT: 35.84%
  HEMOGLOBIN: 13.22 G/DL
  LEUKOCYTE COUNT: 15.52 x10E3/uL
  LYMPHOCYTE: 69.8%
  MEAN CORPUSCULAR HEMOGLOBIN: 21.78 pg
  MEAN CORPUSCULAR HEMOGLOBIN CONCENTRATION: 36.88 G/DL
  MEAN CORPUSCULAR VOLUME: 59 fL
  MONOCYTE: 3.4%
  NEUTROPHIL: 25.2%
  NUCLEATED RED BLOOD CELLS: 0 /100WBC
  PLATELET COUNT: 1123.6 x10E3/uL
  ALANINE AMINOTRANSFERASE: 56 u/L
  ALBUMIN: 3.84 G/DL
  ALKALINE PHOSPHATASE: 286.6 u/L
  ASPARTATE AMINOTRANSFERASE: 76.6 u/L
  BLOOD UREA NITROGEN: 15.4 mg/dL
  CARBON DIOXIDE: 31.8 mmol/L
  CHLORIDE: 104 MEQ/L
  CHOLESTEROL: 55.8 mg/dL
  CREATININE: 0.19 mg/dL
  GLUCOSE: 131.8 mg/dL
  LACTATE DEHYDROGENASE: 80.4 u/L
  LIPASE: 9 u/L
  PHOSPHORUS: 9.08 mg/dL
  POTASSIUM: 5.55 MEQ/L
  SODIUM: 149.03 MEQ/L
  TOTAL BILIRUBIN: 0.16 mg/dL
  TOTAL PROTEIN: 5.98 G/DL
  URIC ACID: 0.64 mg/dL
Rattus norvegicus [2]; tissue Blood
  ABSOLUTE EOSINOPHIL: 109.33 CELLS/uL
  ABSOLUTE LYMPHOCYTE: 7018.33 CELLS/uL
  ABSOLUTE MONOCYTE: 257 CELLS/uL
  ABSOLUTE SEGMENTED NEUTROPHIL: 1082 CELLS/uL
  BASOPHIL: 0%
  EOSINOPHIL: 1.33%
  ERYTHROCYTE COUNT: 5.95 x10E6/uL
  HEMATOCRIT: 37%
  HEMOGLOBIN: 13.5 G/DL
  LEUKOCYTE COUNT: 8.47 x10E3/uL
  LYMPHOCYTE: 83.33%
  MEAN CORPUSCULAR HEMOGLOBIN: 22.7 pg
  MEAN CORPUSCULAR HEMOGLOBIN CONCENTRATION: 36.47 G/DL
  MEAN CORPUSCULAR VOLUME: 62.17 fL
  MONOCYTE: 3%
  NEUTROPHIL: 12.33%
  NUCLEATED RED BLOOD CELLS: 0 /100WBC
  PLATELET COUNT: 1249.33 x10E3/uL
Rattus norvegicus [2]; tissue Plasma
  ALANINE AMINOTRANSFERASE: 29 u/L
  ALBUMIN: 4.47 G/DL
  ALKALINE PHOSPHATASE: 403.67 u/L
  ASPARTATE AMINOTRANSFERASE: 74.67 u/L
  BLOOD UREA NITROGEN: 13.33 mg/dL
  CARBON DIOXIDE: 34.67 mmol/L
  CHLORIDE: 103 MEQ/L
  CHOLESTEROL: 69.67 mg/dL
  CREATININE: 0.18 mg/dL
  GLUCOSE: 144.33 mg/dL
  LACTATE DEHYDROGENASE: 95.67 u/L
  LIPASE: 8.67 u/L
  PHOSPHORUS: 11.1 mg/dL
  POTASSIUM: 5.46 MEQ/L
  SODIUM: 151.33 MEQ/L
  TOTAL BILIRUBIN: 0.1 mg/dL
  TOTAL PROTEIN: 6.4 G/DL
  URIC ACID: 1.17 mg/dL
